Results: PubChem BioAssay (NCI)
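A five-concentration, 48-hour dose response in 96-well plates underlies each endpoint, interpolated linearly between surrounding concentrations. Abbreviation: GI50, concentration required for 50% inhibition of growth. TGI: concentration producing complete growth inhibition.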

What was measured:
Test in all cases: NCI tumour cell line growth inhibition, 48 h
U251 CNS = tested on: U251 CNS
MOLT-4 leukemia = tested on: MOLT-4 leukemia
IGROV1 ovarian = tested on: IGROV1 ovarian
COLO 205 colon = tested on: COLO 205 colon
SK-OV-3 ovarian = tested on: SK-OV-3 ovarian
KM12 colon = tested on: KM12 colon
SF-268 CNS = tested on: SF-268 CNS
HOP-92 NSCLC = tested on: HOP-92 NSCLC
HCT-116 colon = tested on: HCT-116 colon
MDA-MB-435 = tested on: MDA-MB-435

SMILES | TGI (U251 CNS) [µM] | TGI (MOLT-4 leukemia) [µM] | TGI (IGROV1 ovarian) [µM] | TGI (COLO 205 colon) [µM] | TGI (SK-OV-3 ovarian) [µM] | TGI (KM12 colon) [µM] | TGI (SF-268 CNS) [µM] | TGI (HOP-92 NSCLC) [µM] | TGI (HCT-116 colon) [µM] | GI50 (U251 CNS) [µM] | GI50 (MOLT-4 leukemia) [µM] | GI50 (HCT-116 colon) [µM] | GI50 (IGROV1 ovarian) [µM] | GI50 (COLO 205 colon) [µM] | GI50 (SK-OV-3 ovarian) [µM] | GI50 (KM12 colon) [µM] | GI50 (SF-268 CNS) [µM] | GI50 (HOP-92 NSCLC) [µM] | GI50 (MDA-MB-435) [µM] | TGI (MDA-MB-435) [µM]
O=C(O)CNS(=O)(=O)c1ccc(NC(=O)c2ccc(F)cc2)cc1 | > 100 | > 100 | > 100 | > 100 | > 100 | > 100 | > 100 | > 100 |  |  |  |  |  |  |  |  |  |  |  | 
CC(=O)O[C@H]1CC[C@@]2(C)C(CC[C@]3(C)C2CC[C@]2(C)Oc4c(C)cc(O)cc4C[C@@H]23)C1(C)C (stereo partly specified) | 7.96 | 9.75 | 30 | 29.7 | 22.2 | 22.6 | 21.4 | 18.2 | 18.1 |  |  |  |  |  |  |  |  |  |  | 
Oc1ccc2occ3c2c1CCC3 | > 100 | > 100 | > 100 | > 100 | > 100 |  |  | 80.1 | > 100 |  |  |  |  |  |  |  |  |  |  | 
O=c1[nH]c(=O)n(C2CC(O)C(CO)O2)cc1C(OCC(F)(F)F)OCC(F)(F)F (stereo unspecified) | > 100 | > 100 | > 100 | > 100 | > 100 | > 100 | > 100 | > 100 |  |  |  |  |  |  |  |  |  |  |  | 
O=S(=O)([O-])[O-].[Cl-].[NH2-].[NH2-].[NH2-].[NH2-].[Ru+3].c1ccc(-c2cccnc2)cc1 | > 100 | > 100 | > 100 | > 100 | > 100 | > 100 | > 100 | > 100 | > 100 | > 100 | > 100 | > 100 | > 100 | > 100 | > 100 | > 100 | > 100 | > 100 |  | 
CCN(CC)CC(=O)/C=C/c1ccc(C)cc1 | 30.1 | > 100 | 40.4 | 34.5 | 82.5 | 39 | 54.8 | 92.4 | 32.4 |  |  |  |  |  |  |  |  |  |  | 
CN(C)c1ccc(/C=C/C(=O)C(C)(C)C)cc1Br | > 100 | 71.7 | > 100 | 67.2 | > 100 | 56.1 | 70 |  | 38.1 |  |  |  |  |  |  |  |  |  |  | 
O=C1c2ccccc2-c2nccc3cc(Cl)nc1c23 | 10.4 | > 26.8 | 1.91 |  | > 100 |  | 4.28 | 5.64 | 2.41 | 2.43 | 2.21 | 1.18 | 0.586 |  | 35.9 |  | 1.74 | 1.56 | 1.41 | 2.84
Cc1[nH]c(C(=O)Nc2ccc(C(=O)N3CCNCC3)cc2OC(C)C)c(Cl)c1Cl | 3.46 | 5.1 | 3.49 |  |  | 3.46 | 3.81 | 6.07 | 3.41 | 1.77 | 2.32 | 1.85 | 1.58 |  |  | 1.84 | 1.85 | 1.62 | 1.76 | 3.23
C=CCC12CCC(=O)C=C1CCC1(C2)OCCO1 (stereo unspecified) | > 100 | > 100 | > 100 | > 100 | > 100 | > 100 | > 100 |  | > 100 |  |  |  |  |  |  |  |  |  |  | 
CN(C)/C=C/c1nnnn1-c1ccc(Cl)cc1 | > 100 | > 100 | > 100 | 58.7 | 81.6 | 64.8 | 19.8 |  | 37.3 | 6.5 | 3.51 | 4.4 | 14 | 28.2 | 24.1 | 22 | 3.01 |  |  | 
COc1ccc(-c2nsc3c2NC(=O)CC3c2ccc3c(c2)OCO3)cc1 (stereo unspecified) |  | 18.7 | > 100 | 3.72 | > 100 | > 100 | > 100 |  | > 100 |  | 1.29 | 0.574 | 2.61 | 0.627 | 2.33 | 0.645 | 6.44 |  | 0.219 | 0.539
Cc1cc2c(cc1C)[n+](=O)c(C(=O)/C=C/c1ccc(Cl)cc1)c(C)n2[O-] | 67.9 | 73.5 | 63.7 | 41.1 | > 100 | > 100 |  | > 100 |  |  |  |  |  |  |  |  |  |  |  | 
O=C(CC1(O)C(=O)Nc2ccc(Br)cc21)c1ccc(Cl)cc1 (stereo unspecified) | 95.1 | > 100 | > 100 | > 100 | > 100 | > 100 | > 100 | 87.6 | > 100 |  |  |  |  |  |  |  |  |  |  | 
CC1CCC2(NC1)OC1CC3[C@@H]4CC=C5C=CCC[C@]5(C)C4CC[C@]3(C)C1C2C (stereo partly specified) | 88.7 | 66.3 | > 100 | 34.6 | 68.4 | 44 | > 100 | 61.8 | 32.7 |  |  |  |  |  |  |  |  |  |  | 
NC1CCCCC1N.O=C([O-])P(=O)([O-])[O-].[Na+].[Pt+4] (stereo unspecified) | > 100 | > 100 | > 100 |  | > 100 | > 100 | > 100 |  | > 100 | > 100 | 29.1 | 47.6 | > 100 |  | > 100 | > 100 | > 100 |  |  | 
O=c1[nH]c(-c2ccccc2)nc2ccc(Cl)cc12 | > 100 | > 100 |  | > 100 |  | > 100 | > 100 | 84.1 | > 100 |  |  |  |  |  |  |  |  |  |  | 
NC(N)=N/N=C/c1c(-c2cccs2)nc2sccn12 | 33.9 | 36.3 |  |  | 25.7 | 20.7 | 29.1 |  | 17.7 | 15.8 | 8.48 | 4.23 |  |  | 13 | 8.24 | 15.2 |  | 13.2 | 25.9
CCNc1c(C(=O)N(CC)CC)c(=O)[nH]c2ncccc12 | > 100 | > 100 | > 100 | > 100 | > 100 | > 100 | > 100 | > 100 | > 100 |  |  |  |  |  |  |  |  |  |  | 
Cc1ccc(C(=O)O/N=C2/CCCCC2CN(C)C)cc1 (stereo unspecified) | > 100 | > 100 | > 100 | > 100 | > 100 | > 100 |  | > 100 | > 100 |  |  |  |  |  |  |  |  |  |  | 
